The results in this text go back to PubChem BioAssay (NCI).

Some test systems named below: HOP-92 NSCLC; SK-MEL-2 melanoma; ACHN renal; PC-3 prostate; NCI-H23 lung; UACC-257 melanoma; SNB-75 CNS.
Common to all, as to experiment: NCI-60 cell line screen, 48 h

“And” between values parts separate entries of the source, which are not always exact repeats. Identical values can stand only once.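 Growth conditions: 96-well plates. Treatment: test compound, 48 hours, 5 concentrations. Analysis: linear interpolation between bracketing concentrations; unreached endpoints set to highest concentration. GI50: concentration for 50% inhibition of growth. Definition used: TGI = concentration required for complete inhibition of growth.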

As to `CC(=O)c1c[nH]c2ccc(-c3ccnc(Nc4ccc(NC(=O)c5cccc(F)c5)c(CN5CCOCC5)c4)n3)cc12`, the GI50 in the assay with HOP-92 NSCLC was 154 nM; with SK-MEL-2 melanoma, 180 nM; in the assay on ACHN renal it was 84.5 nM; in the assay on PC-3 prostate, 224 nM; with NCI-H23 lung, 195 nM; in the assay on UACC-257 melanoma, 304 nM. Also, the GI50 in the assay on SNB-75 CNS was 42 nM. For the same molecule, the TGI in the assay on HOP-92 NSCLC was determined as 1170 nM; in the assay with SK-MEL-2 melanoma it was 549 nM; with ACHN renal, 3100 nM; with PC-3 prostate, 2960 nM; in the assay with NCI-H23 lung it was 1090 nM; in the assay with UACC-257 melanoma, 2650 nM. In addition, the TGI in the assay on SNB-75 CNS was found to be 342 nM.

Consider `CC(=O)NC1=NC(=O)/C(=C/c2ccc(Cl)cc2Cl)N1C`, for which the TGI in the assay with HOP-92 NSCLC, with SK-MEL-2 melanoma, in the assay with ACHN renal, with PC-3 prostate, in the assay with NCI-H23 lung and in the assay with UACC-257 melanoma was above 100000 nM throughout. Moreover, in the assay with SNB-75 CNS, the TGI was above 100000 nM.

Regarding `COC1=CC(=O)c2c(O)c3c(c(O)c2C1=O)CC(C)(O)OC3` (configuration not stated), the TGI is 10500 nM with HOP-92 NSCLC; 9900 nM with SK-MEL-2 melanoma; above 34000 nM with ACHN renal; 14900 nM in the assay on PC-3 prostate; 8420 nM with NCI-H23 lung; 4880 nM with UACC-257 melanoma. Further, in the assay on SNB-75 CNS, the TGI is above 67600 nM.

For the molecule `Cc1cc(C)c2nc(Nc3nc(C)c(C)c(=O)[nH]3)nc(C)c2c1`, the GI50 in the assay on HOP-92 NSCLC is 2480 nM; in the assay with SK-MEL-2 melanoma, 2270 nM; with ACHN renal, 3060 nM; in the assay on PC-3 prostate, 2960 nM; with NCI-H23 lung, 3440 nM; with UACC-257 melanoma, 2820 nM. The GI50 in the assay on SNB-75 CNS was 2900 nM. Besides, the TGI was 9110 nM in the assay on HOP-92 NSCLC; 7090 nM in the assay on SK-MEL-2 melanoma; 11600 nM with ACHN renal; 15100 nM with PC-3 prostate; 20400 nM in the assay with NCI-H23 lung; 9220 nM in the assay on UACC-257 melanoma. In addition, the TGI in the assay with SNB-75 CNS worked out at 13600 nM.

Take `CCCCC#Cc1c(I)n(C2OC(CO[Si](C)(C)C(C)(C)C)C3OC(C)(C)OC32)c(=O)[nH]c1=O` (configuration not stated): the GI50 in the assay on HOP-92 NSCLC was 3040 nM; with SK-MEL-2 melanoma, 1370 nM; in the assay on ACHN renal, 2290 nM; in the assay on PC-3 prostate, 2800 nM; with NCI-H23 lung it was 13000 nM; in the assay on UACC-257 melanoma, 3100 nM. In the assay on SNB-75 CNS, the GI50 is 12100 nM. Moreover, the TGI with HOP-92 NSCLC stood at 8080 nM; with SK-MEL-2 melanoma, 3580 nM; in the assay on ACHN renal, 7520 nM; in the assay with PC-3 prostate, 10400 nM; in the assay on NCI-H23 lung it was 31300 nM; in the assay with UACC-257 melanoma, 15500 nM. This molecule also came in with a TGI with SNB-75 CNS of 24900 nM.

Take `O=C1CCc2cc([N+](=O)[O-])ccc2O1`: the TGI in the assay on HOP-92 NSCLC, in the assay on SK-MEL-2 melanoma, with ACHN renal, in the assay with PC-3 prostate, in the assay on NCI-H23 lung and in the assay with UACC-257 melanoma was above 100000 nM in each case. Besides, the TGI in the assay on SNB-75 CNS is above 100000 nM.

Take `CCCCCc1c(C)[nH]c(/C=C2\N=C(c3ccc[nH]3)C=C2Oc2ccc(OC)cc2)c1C`: the GI50 in the assay on HOP-92 NSCLC was 145 nM and 15.3 nM; in the assay on SK-MEL-2 melanoma, 116 nM and 29.9 nM; with ACHN renal, 180 nM and 48.2 nM; in the assay on PC-3 prostate it was 106 nM and 27.5 nM; in the assay with NCI-H23 lung, 258 nM and 80.6 nM; in the assay on UACC-257 melanoma it was 125 nM. Further, the GI50 in the assay with SNB-75 CNS was 204 nM and 32.8 nM. Besides, the TGI in the assay with HOP-92 NSCLC was 575 nM and 101 nM; in the assay on SK-MEL-2 melanoma, 302 nM and 83.6 nM; in the assay with PC-3 prostate, 1030 nM; with NCI-H23 lung, 2840 nM and 1550 nM; in the assay with UACC-257 melanoma, 998 nM; with SNB-75 CNS, 559 nM and 316 nM.

Take `COc1cc(C2CC(c3ccc(C)cc3)=NN2C(C)=O)ccc1Oc1ccnc2cc(Cl)ccc12` (configuration not stated): the GI50 in the assay on HOP-92 NSCLC is 30100 nM; with SK-MEL-2 melanoma it was 15800 nM; with ACHN renal, 2760 nM; in the assay on PC-3 prostate it was above 100000 nM; in the assay on NCI-H23 lung, 2710 nM; in the assay on UACC-257 melanoma, above 100000 nM. For the same molecule, the GI50 with SNB-75 CNS is 482 nM. The TGI in the assay on HOP-92 NSCLC is above 100000 nM; with SK-MEL-2 melanoma it was 43200 nM; with ACHN renal it was above 100000 nM; in the assay on PC-3 prostate, above 100000 nM; in the assay on NCI-H23 lung it was above 100000 nM; in the assay on UACC-257 melanoma, above 100000 nM. Also, in the assay on SNB-75 CNS, the TGI is 5930 nM.

Take `COc1ccc(-n2cc(-c3ccc(Cl)cc3)[nH]c2=S)cc1Cl`: the GI50 with HOP-92 NSCLC is 17200 nM; in the assay on SK-MEL-2 melanoma it was 82100 nM; in the assay on ACHN renal, 33100 nM; in the assay with PC-3 prostate it was 30700 nM; in the assay with NCI-H23 lung it was 84400 nM; with UACC-257 melanoma, above 100000 nM. For the same molecule, the GI50 with SNB-75 CNS is 21600 nM. Also, the TGI is 43500 nM with HOP-92 NSCLC; above 100000 nM with SK-MEL-2 melanoma; above 100000 nM in the assay on ACHN renal; above 100000 nM with PC-3 prostate; above 100000 nM with NCI-H23 lung; above 100000 nM in the assay with UACC-257 melanoma. In the assay with SNB-75 CNS, this molecule gave a TGI of 46700 nM.

As for `COc1ccc(CNCCN2C(=O)c3ccc4c5c(ccc(c35)C2=O)C(=O)N(CCNCc2ccc(OC)cc2)C4=O)cc1`, the GI50 in the assay with HOP-92 NSCLC was 788 nM; in the assay on SK-MEL-2 melanoma, 313 nM; in the assay with ACHN renal, 312 nM; in the assay on PC-3 prostate it was 387 nM; in the assay on NCI-H23 lung, 206 nM; in the assay on UACC-257 melanoma, 184 nM. Further, the GI50 with SNB-75 CNS was 1150 nM. Also, the TGI was 2680 nM in the assay with HOP-92 NSCLC; 1140 nM with SK-MEL-2 melanoma; 1560 nM in the assay with ACHN renal; 1960 nM in the assay with PC-3 prostate; 494 nM with NCI-H23 lung; 337 nM in the assay with UACC-257 melanoma. This molecule also showed a TGI in the assay with SNB-75 CNS of 2480 nM.

Take `NS(=O)(=O)OC[C@H]1O[C@@H](n2cnc3c(N[C@H]4CCc5ccccc54)ncnc32)[C@H](O)[C@@H]1O`: the GI50 is 475 nM in the assay on HOP-92 NSCLC; 98 nM with SK-MEL-2 melanoma; 167 nM with ACHN renal; 337 nM with PC-3 prostate; 185 nM in the assay on NCI-H23 lung; 213 nM with UACC-257 melanoma. Moreover, the GI50 in the assay on SNB-75 CNS is 358 nM. For the same molecule, the TGI in the assay on HOP-92 NSCLC turned out to be 799 nM; in the assay on SK-MEL-2 melanoma, 434 nM; in the assay on ACHN renal, 570 nM; in the assay on PC-3 prostate, 2140 nM; in the assay on NCI-H23 lung it was 1260 nM; in the assay on UACC-257 melanoma, 577 nM. The molecule also registered a TGI in the assay on SNB-75 CNS of 1000 nM.
